Test systems include NCI-H460; SK-MEL-5; HCT-15; HT-29; EKVX; SF-295; Malme-3M; SF-268; RPMI-8226; NCI-H226; M14; SNB-75; RXF 393; SW-620; SK-OV-3; CAKI-1; OVCAR-5; HOP-92.
What all share (test): NCI tumour cell line growth inhibition, 48 h

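These data come from cells grown in 96-well plates and exposed to compound for 48 hours at five concentrations. Here, GI50 denotes the concentration required for 50% inhibition of growth.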 Activity calls are given as the source filed them. No stated cut-off is given here; in the data, active = GI50 up to about 1.1 µM and inactive = higher.

Here are results for 13 compounds from ChEMBL document CHEMBL1201862, “PubChem BioAssay data set” (2004).

Take `COC(=O)CC1NC(=O)[C@@H]1C(C)O` (stereo partly specified): the GI50 in the assay on NCI-H460 is > 100 µM (inactive); in the assay on SK-MEL-5, > 100 µM (inactive); in the assay with HCT-15, above 100 µM; in the assay on HT-29, > 100 µM (inactive); with EKVX, > 100 µM (inactive); in the assay on SF-295, > 100 µM (inactive). Besides, the GI50 in the assay with Malme-3M, with SF-268, in the assay with RPMI-8226, with NCI-H226, with M14 and with SNB-75 was > 100 µM (inactive) each time. Further, the GI50 with RXF 393 and with SW-620 was > 100 µM (inactive) in each case.

For `O=C1c2ccccc2C(=O)c2sc(Nc3ccc(Cl)cc3)nc21`, the GI50 in the assay with NCI-H460 is 2.82 µM (inactive); in the assay with SK-MEL-5, 1.8 µM (inactive); with HCT-15, 1.8 µM; with HT-29 it was 4.15 µM (inactive); in the assay on EKVX it was 5.77 µM (inactive); in the assay with SF-295, 5.53 µM (inactive). For the same compound, the GI50 in the assay on Malme-3M is 1.96 µM (inactive); in the assay on SK-OV-3, 18.9 µM (inactive); in the assay with SF-268 it was 2.4 µM (inactive); in the assay with CAKI-1, 1.99 µM (inactive); with RPMI-8226 it was 1.38 µM (inactive); in the assay with NCI-H226 it was 7.53 µM (inactive). The GI50 was 2.14 µM (inactive) in the assay on M14; 8.41 µM (inactive) in the assay on SNB-75; 5.13 µM (inactive) in the assay on OVCAR-5; 1.53 µM (inactive) in the assay on RXF 393; 1.09 µM (active) in the assay with SW-620.

On to `CCOC(=O)C(=CNC(Cc1c[nH]c2ccccc12)C(=O)OC)C(=O)OCC` (stereo unspecified), for which the GI50 in the assay on NCI-H460 is 44.7 µM (inactive); with SK-MEL-5, 86.3 µM (inactive); with HCT-15 it was above 100 µM; in the assay with HT-29, > 100 µM (inactive); with EKVX, > 100 µM (inactive); in the assay on SF-295 it was > 100 µM (inactive). In addition, the GI50 in the assay on Malme-3M was > 100 µM (inactive); in the assay with SK-OV-3 it was > 100 µM (inactive); in the assay with SF-268 it was > 100 µM (inactive); in the assay on HOP-92, 16.6 µM (inactive); in the assay on CAKI-1 it was > 100 µM (inactive); in the assay with RPMI-8226, > 100 µM (inactive). In addition, the GI50 in the assay with NCI-H226, in the assay on M14, in the assay with SNB-75 and in the assay with SW-620 was > 100 µM (inactive) throughout.

As for `c1cc2c(cc1C1OCC3C(c4ccc5c(c4)OCO5)OCC13)OCO2` (stereo unspecified), the GI50 with NCI-H460 is 75.3 µM (inactive); in the assay with SK-MEL-5, 28.4 µM (inactive); with HCT-15, 50.6 µM; with HT-29 it was 35.6 µM (inactive); in the assay on EKVX it was 62.4 µM (inactive); in the assay with SF-295, 87.1 µM (inactive). Also, the GI50 is 61.9 µM (inactive) in the assay on Malme-3M; > 100 µM (inactive) in the assay with SK-OV-3; > 100 µM (inactive) with SF-268; 69.7 µM (inactive) with HOP-92; 58.3 µM (inactive) in the assay with NCI-H226; 66.8 µM (inactive) with M14. The GI50 in the assay on SNB-75 was 50.8 µM (inactive); in the assay with OVCAR-5 it was 55.6 µM (inactive); in the assay on RXF 393, 57.9 µM (inactive); in the assay on SW-620 it was > 100 µM (inactive).

As for `CC(C)(C)[Si](C)(C)O/N=C\c1cccc(O[Si](C)(C)C(C)(C)C)c1`, the GI50 in the assay on NCI-H460 is 17.7 µM (inactive); with SK-MEL-5 it was 17.8 µM (inactive); in the assay with HCT-15 it was 19.2 µM; with HT-29, 16.5 µM (inactive); with EKVX it was 18.5 µM (inactive); in the assay with SF-295, 18 µM (inactive). Also, the GI50 with Malme-3M was 42.4 µM (inactive); in the assay with SK-OV-3, 21 µM (inactive); with SF-268 it was 18.3 µM (inactive); in the assay on HOP-92 it was 15.5 µM (inactive); in the assay with CAKI-1, 24.8 µM (inactive); in the assay with RPMI-8226 it was 17 µM (inactive). Also, the GI50 with M14 was 16 µM (inactive); in the assay on SNB-75 it was 16.7 µM (inactive); with OVCAR-5 it was 20.1 µM (inactive); with RXF 393 it was 19.6 µM (inactive); in the assay with SW-620, 18.5 µM (inactive).

In the case of `O=C1CCCCCCCCCCC(=O)C2CCOCCOCCOCCC1Cc1cccc(n1)C2`, the GI50 is 99.1 µM (inactive) in the assay with NCI-H460; 42.4 µM (inactive) with SK-MEL-5; 83.2 µM with HCT-15; > 100 µM (inactive) with HT-29; > 100 µM (inactive) with EKVX; 76.7 µM (inactive) with SF-295. Also, the GI50 in the assay with Malme-3M is > 100 µM (inactive); with SK-OV-3, > 100 µM (inactive); with SF-268, 94.4 µM (inactive); in the assay with CAKI-1, 41.2 µM (inactive); in the assay with RPMI-8226, 39.1 µM (inactive); in the assay with NCI-H226, 60 µM (inactive). Further, the GI50 in the assay on M14 is 67.6 µM (inactive); in the assay on SNB-75, 49.3 µM (inactive); in the assay on RXF 393 it was 32 µM (inactive); in the assay on SW-620 it was > 100 µM (inactive).

As for `O=C1/C(=C/c2ccccc2)CCCC/C1=C\c1ccccc1`, the GI50 is 51.3 µM (inactive) in the assay on NCI-H460; 24.1 µM (inactive) with SK-MEL-5; 32.9 µM with HCT-15; 16.2 µM (inactive) in the assay with HT-29; > 100 µM (inactive) in the assay on EKVX; 72.3 µM (inactive) in the assay on SF-295. For the same compound, the GI50 with Malme-3M was 36.2 µM (inactive); in the assay on SK-OV-3, > 100 µM (inactive); in the assay on SF-268, 88.9 µM (inactive); in the assay with HOP-92, 40.1 µM (inactive); with CAKI-1, > 100 µM (inactive); in the assay on NCI-H226 it was 39.4 µM (inactive). Moreover, the GI50 is > 100 µM (inactive) in the assay on M14; 66.7 µM (inactive) in the assay with SNB-75; 29 µM (inactive) in the assay with OVCAR-5; 27.2 µM (inactive) in the assay with RXF 393; 58.5 µM (inactive) in the assay with SW-620.

With `CC(C)(C)C(=O)/C=C/c1cccc(Oc2ccccc2)c1`, the GI50 in the assay with NCI-H460 was 16 µM (inactive); in the assay on SK-MEL-5 it was 14.4 µM (inactive); with HCT-15, 19.4 µM; with HT-29, 9.12 µM (inactive); in the assay on EKVX, 18.7 µM (inactive); in the assay on SF-295, 11.8 µM (inactive). The GI50 is 18.8 µM (inactive) with Malme-3M; 41 µM (inactive) in the assay with SK-OV-3; > 10 µM (inactive) in the assay on SF-268; 3.94 µM (inactive) in the assay with RPMI-8226; 18.2 µM (inactive) in the assay with NCI-H226; 18.6 µM (inactive) in the assay with M14. The GI50 with SNB-75 was 12.4 µM (inactive); in the assay with OVCAR-5, 18.4 µM (inactive); with RXF 393, 15 µM (inactive); with SW-620, > 10 µM (inactive).

As for `CN(C)C(=S)/N=c1\ss/c(=N\C(=S)N(C)C)n1-c1ccc2c(c1)OCO2`, the GI50 with SK-MEL-5 is > 100 µM (inactive); in the assay with HCT-15, above 100 µM; in the assay with EKVX, > 100 µM (inactive); in the assay on SF-295, > 100 µM (inactive); with Malme-3M, > 100 µM (inactive); with SK-OV-3 it was > 100 µM (inactive). The GI50 in the assay on SF-268, in the assay with CAKI-1, in the assay with NCI-H226, in the assay on M14, with SNB-75 and with OVCAR-5 was > 100 µM (inactive) throughout. For the same compound, the GI50 in the assay on RXF 393 and in the assay on SW-620 was > 100 µM (inactive) in each case.

As to `COC(=O)C(Cc1nc2ccc(Cl)cc2nc1O)C(=O)C(=O)Nc1ccccc1[N+](=O)[O-]` (stereo unspecified), the GI50 was > 100 µM (inactive) in the assay on NCI-H460; > 100 µM (inactive) in the assay with SK-MEL-5; above 100 µM with HCT-15; > 100 µM (inactive) with HT-29; 7.8 µM (inactive) with EKVX; > 100 µM (inactive) in the assay on SF-295. The GI50 in the assay on Malme-3M, in the assay with SK-OV-3, in the assay with SF-268, in the assay with CAKI-1, with RPMI-8226 and in the assay on NCI-H226 was > 100 µM (inactive) in each case. Besides, the GI50 with M14, with SNB-75, in the assay with OVCAR-5, in the assay on RXF 393 and in the assay on SW-620 was > 100 µM (inactive) each time.

Take `COC(=O)C(CC(=O)c1c[nH]c2ccccc12)c1c[nH]c2ccccc12` (stereo unspecified): the GI50 is 18.8 µM (inactive) in the assay on NCI-H460; 16.4 µM (inactive) in the assay on SK-MEL-5; 16.4 µM with HCT-15; 16.9 µM (inactive) with HT-29; 23.4 µM (inactive) in the assay on EKVX; > 10 µM (inactive) in the assay on SF-295. The GI50 is 19.1 µM (inactive) with Malme-3M; 41.9 µM (inactive) in the assay with SK-OV-3; 20 µM (inactive) in the assay with CAKI-1; 11.5 µM (inactive) in the assay on RPMI-8226; 22 µM (inactive) in the assay on NCI-H226; 18.2 µM (inactive) in the assay on M14. For the same compound, the GI50 is 21.2 µM (inactive) in the assay with SNB-75, 22.2 µM (inactive) in the assay on OVCAR-5, 14 µM (inactive) with RXF 393 and 22.8 µM (inactive) in the assay with SW-620.

Regarding `CN(C)CCCOc1ccc(/C=C2/CCC/C(=C/c3ccc(OCCCN(C)C)cc3)C2=O)cc1`, the GI50 in the assay with NCI-H460 is 2.07 µM (inactive); in the assay with SK-MEL-5, 2.23 µM (inactive); in the assay with HCT-15 it was 0.995 µM; with HT-29, 0.442 µM (active); in the assay on EKVX, 3.95 µM (inactive); in the assay on SF-295, 1.9 µM (inactive). Further, the GI50 in the assay on Malme-3M was 1.78 µM (inactive); with SK-OV-3, 1.93 µM (inactive); with SF-268 it was 2 µM (inactive); with HOP-92, 1.16 µM (inactive); with RPMI-8226, 1.26 µM (inactive); in the assay with M14, 2.11 µM (inactive). Moreover, the GI50 with SNB-75 is 1.28 µM (inactive); with OVCAR-5 it was 0.239 µM (active); in the assay with RXF 393 it was 1.61 µM (inactive); in the assay on SW-620, 1.77 µM (inactive).

As to `Brc1c2nc3ccccc3nc2n2ccc3ccccc3c12`, the GI50 in the assay on NCI-H460 is > 100 µM (inactive); with SK-MEL-5 it was > 100 µM (inactive); with HCT-15, above 100 µM; in the assay with EKVX, > 100 µM (inactive); with Malme-3M, > 100 µM (inactive); in the assay with SK-OV-3, 2.23 µM (inactive). For the same compound, the GI50 in the assay on SF-268, with HOP-92, in the assay with CAKI-1, in the assay on RPMI-8226, in the assay on M14 and in the assay on SNB-75 was > 100 µM (inactive) in each case. Moreover, the GI50 with OVCAR-5 and in the assay on SW-620 was > 100 µM (inactive) throughout.
